From ChEMBL document CHEMBL4765309, “New deferiprone derivatives as multi-functional cholinesterase inhibitors: design, synthesis and in vitro evaluation” (Eur J Med Chem, 2020)
Activity calls are given as the source filed them. No cut-off for these calls is given here.

What was measured:
[1] = Cytotoxicity against human U-87 MG cells assessed as cell viability at 10 uM incubated for 24 hrs by MTT assay; format: cell-based, U-87MG ATCC; conditions: read-out: Activity
Cholinesterase = Cholinesterase (Equus caballus, UniProt P81908); experiment: Inhibition of equine BChE assessed as inhibition constant using acetylthiocholine as substrate measured for 0.5 to 1.5 mins by Ellman's method
[2] = biological target: Cholinesterase (Equus caballus) (UniProt P81908); experiment: Mixed type inhibition of equine BChE using varying level of acetylthiocholine as substrate by Dixon plot analysis
[3] = Metal chelating activity assessed as compound-Zn2+ complex formation at 2 mM in presence of Zn(NO3)2.6H2O by UV-vis spectrophotometric titration analysis
Acetylcholinesterase = Acetylcholinesterase (Electrophorus electricus, UniProt O42275); experiment: Inhibition of electric eel AChE assessed as inhibition constant using acetylthiocholine as substrate measured for 0.5 to 1.5 mins by Ellman's method
[4] = Metal chelating activity assessed as compound-Fe3+ complex formation at 1.7 mM in presence of FeCl3.6H2O by UV-vis spectrophotometric titration analysis
[5] = Metal chelating activity assessed as compound-Fe3+ complex formation by measuring mole fraction that causes maximum variation in absorbance in presence of FeCl3.6H2O by Job's plot analysis
[6] = Metal chelating activity assessed as compound-Cu2+ complex formation by measuring mole fraction that causes maximum variation in absorbance in presence of CuSO4.5H2O by Job's plot analysis
[7] = Metal chelating activity assessed as compound-Fe3+ complex formation at 2 mM in presence of FeCl3.6H2O by UV-vis spectrophotometric titration analysis
[8] = Metal chelating activity assessed as compound-Cu2+ complex formation at 2 mM in presence of CuSO4.5H2O by UV-vis spectrophotometric titration analysis

Sequence of Acetylcholinesterase (O42275 whole entry): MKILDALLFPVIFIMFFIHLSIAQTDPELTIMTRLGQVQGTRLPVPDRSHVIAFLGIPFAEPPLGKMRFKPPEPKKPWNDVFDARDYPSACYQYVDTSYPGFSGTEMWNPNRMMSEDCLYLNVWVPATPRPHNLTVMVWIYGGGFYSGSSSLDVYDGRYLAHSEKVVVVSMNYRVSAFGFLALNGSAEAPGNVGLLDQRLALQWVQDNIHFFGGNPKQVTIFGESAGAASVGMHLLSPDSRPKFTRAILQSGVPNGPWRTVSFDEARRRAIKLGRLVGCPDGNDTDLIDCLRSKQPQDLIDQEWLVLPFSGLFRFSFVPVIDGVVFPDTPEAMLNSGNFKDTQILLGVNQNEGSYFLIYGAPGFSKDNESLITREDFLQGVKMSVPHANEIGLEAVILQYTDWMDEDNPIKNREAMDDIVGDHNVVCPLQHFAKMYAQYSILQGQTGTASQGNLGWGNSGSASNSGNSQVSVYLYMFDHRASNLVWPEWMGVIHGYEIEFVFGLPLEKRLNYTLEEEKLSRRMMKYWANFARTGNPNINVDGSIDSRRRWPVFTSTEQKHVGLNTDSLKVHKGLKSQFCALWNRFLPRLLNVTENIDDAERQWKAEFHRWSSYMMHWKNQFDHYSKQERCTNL
Sequence of Cholinesterase (P81908 whole entry): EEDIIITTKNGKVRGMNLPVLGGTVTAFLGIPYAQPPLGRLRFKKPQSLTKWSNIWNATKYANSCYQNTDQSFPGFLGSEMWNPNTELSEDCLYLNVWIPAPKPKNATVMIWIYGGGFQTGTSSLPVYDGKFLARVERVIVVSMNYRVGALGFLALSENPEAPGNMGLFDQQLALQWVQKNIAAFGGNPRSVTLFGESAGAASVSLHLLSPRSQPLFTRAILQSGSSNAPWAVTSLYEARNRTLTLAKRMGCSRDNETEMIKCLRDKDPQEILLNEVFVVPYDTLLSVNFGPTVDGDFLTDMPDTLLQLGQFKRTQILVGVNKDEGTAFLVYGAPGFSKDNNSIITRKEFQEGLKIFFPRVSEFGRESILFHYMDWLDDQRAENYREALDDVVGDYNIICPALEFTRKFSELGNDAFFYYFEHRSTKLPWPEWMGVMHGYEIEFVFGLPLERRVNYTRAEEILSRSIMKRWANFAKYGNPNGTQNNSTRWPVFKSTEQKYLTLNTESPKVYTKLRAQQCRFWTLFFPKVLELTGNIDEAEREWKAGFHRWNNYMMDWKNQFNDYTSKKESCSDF
Sequence of Cholinesterase (Equus caballus) (P81908 whole entry): as above

Structure (SMILES) | viability at 24 h, 10 µM [1] | Ki (Cholinesterase) | inhibition [2] | Activity [3] | Ki (Acetylcholinesterase) | Activity [4] | Activity (mole fraction) [5] | Activity (mole fraction) [6] | Activity [7] | Activity [8]
Cc1c(OCc2ccccc2)c(=O)ccn1CCCCNCc1ccccc1 | > 75% | 450 nM | Active | – | – | – | – | – | – | –
Cc1c(OCc2ccccc2)c(=O)ccn1CCCCCCNCc1ccccc1 | > 75% | 2360 nM | Active | inactive | 788 nM | Active | 0.52 | – | – | –
Cc1c(O)c(=O)ccn1CCCCCCNc1ccnc(NCc2ccccc2)n1 | > 75% | 920 nM | Active | Active | – | – | 0.5 | 0.64 | – | –
COc1ccccc1CNCCCCCCn1ccc(=O)c(O)c1C | > 75% | – | – | – | 1340 nM | – | – | – | – | –
Cc1c(OCc2ccccc2)c(=O)ccn1CCCCCCNc1nccc(Cl)n1 | > 75% | 1080 nM | Active | – | – | – | – | – | Active | –
COc1ccccc1CNCCCCCCn1ccc(=O)c(OCc2ccccc2)c1C | > 75% | 910 nM | Active | – | 2790 nM | – | – | – | – | –
Cc1c(OCc2ccccc2)c(=O)ccn1CCCCCCNc1ccnc(NCc2ccccc2)n1 | > 75% | 258 nM | Active | – | – | – | 0.67 | – | Active | Active
Cc1c(O)c(=O)ccn1CCCCCCNCc1ccccc1 | > 75% | – | – | inactive | 1370 nM | – | 0.53 | 0.37 | Active | Active
Cc1c(OCc2ccccc2)c(=O)ccn1CCCCCCNc1ccccn1 | > 75% | 182 nM | Active | – | – | – | 0.7 | – | Active | –
